Reference: patent publication US9958439B2, “Carbohydrate detection” (RICHTER LIFE SCIENCE DEVELOPMENT AB, priority 2012, dated 2018)
Like-named read-outs stand apart in the source and are kept apart here.

Key:
[1] = for RFU change (Correlation analysis): probe-specific excitation λ, emission 545 nm; for carbohydrate can be detected and/or differentiated by the LCO: conclusion from change in signal magnitude and/or shift in λmax
Protocol: (§1) The excitation spectrum of the probe was analyzed for wavelengths 300-500 nm with emission read at 545 nm.
(§2) 3 μM of each probe was applied to serial two fold dilutions of the insoluble carbohydrate. Respective probes were excited at wavelengths unique to each probe (specified in figure), and emission was read at 545 nm.
(§3) Serial dilutions of carbohydrate suspensions were prepared in dH2O. Concentrations ranging from 10 to 0.039 mg/ml was used for β-1,3-glucan, cellulose and chitin, whereas 5 to 0.019 mg/ml was used for sodium alginate, glucose, amylose, glycogen, cellulobiose, heparin, chondroitin sulfate A. 3 μM of each LCO probe was added to 1 ml aliquots of each concentration of carbohydrate, after which 100 μl was dispensed in triplicates into 96 well plates. Excitation spectra were collected by exciting the sample from 300 to 500 nm and detecting emission at 545 nm. Detection of carbohydrate is concluded when there is a reproducible change in λmax and/or RFU intensity with reference to the negative control. Data from three concentrations, as well as the negative control are shown for each carbohydrate as specified in respective figure.
(§4) The excitation wavelength (emission detected at 545 nm) selected for each LCO is either (1) the λmax, or (2) the excitation wavelength which suffers the lowest background. A linear regression analysis is performed to determine the relationship between the carbohydrate concentration and RFU.

[2] = Protocol: 3 μM of each probe was applied to serial two fold dilutions of the insoluble carbohydrate of which the concentration shown here are 5 mg/ml (_.), 2.5 mg/ml (. . . ), 1.25 mg/ml (__) and 0 mg/ml (_). The excitation spectrum of the probe was analyzed for wavelengths 300-500 nm with emission read at 545 nm.
as §2, §3, §4

[3] = remark: listed apart in the source
Protocol: (§5) 3 μM of each probe was applied to serial two fold dilutions of the carbohydrate of which the concentration shown here are 5 mg/ml (_.), 2.5 mg/ml (. . . ) 1.25 mg/ml (__) and 0 mg/ml (_). The excitation spectrum of the probe was analyzed for wavelengths 300-500 nm with emission read at 545 nm.
3 μM of each probe was applied to serial two fold dilutions of the carbohydrate. Respective probes were excited at wavelengths unique to each probe (specified in figure), and emission was read at 545 nm. […] The mean increase in signal (_) with [Glucose] and the fitted regression line (__) is shown.
as §3, §4

[4] = for RFU change (Correlation analysis): probe-specific excitation λ, emission 545 nm; for carbohydrate can be detected and/or differentiated by the LCO: conclusion from change in signal magnitude and/or shift in λmax; remark: listed apart in the source
Protocol: as §5
(§6) 3 μM of each probe was applied to serial two fold dilutions of the carbohydrate. Respective probes were excited at wavelengths unique to each probe (specified in figure), and emission was read at 545 nm.
as §3, §4

[5] = for RFU change (Correlation analysis): probe-specific excitation λ, emission 545 nm; for carbohydrate can be detected and/or differentiated by the LCO: conclusion from change in signal magnitude and/or shift in λmax; for Gradient Parameters (gradient of regression line) / Linear relationship / Quality of Gradient: linear regression
Protocol: 3 μM of each probe was applied to serial two fold dilutions of the carbohydrate of which the concentration shown here are 5 mg/ml (_.), 2.5 mg/ml (. . . ), 1.25 mg/ml (__) and 0 mg/ml (_). The excitation spectrum of the probe was analyzed for wavelengths 300-500 nm with emission read at 545 nm.
as §6, §3, §4

[6] = remark: listed apart in the source
Protocol: as §1, §6, §3, §4

[7] = Chitin 10-[…], 3 μM probe, spectral analysis, Excitation 300-500, Emission 545
[8] = cellulose concentration vs RFU, linear regression
[9] = chitin concentration vs RFU, linear regression
[10] = β-1,3-glucan concentration vs RFU, linear regression
[11] = sodium alginate concentration vs RFU, linear regression
[12] = glucose concentration vs RFU, linear regression
[13] = Cellulobiose 5-0.019 mg/ml, 3 μM probe, spectral analysis, Excitation 300-500, Emission 545
[14] = amylose concentration vs RFU, linear regression
[15] = cellulobiose concentration vs RFU, linear regression
[16] = Glycogen 5-0.019 mg/ml, 3 μM probe, spectral analysis, Excitation 300-500, Emission 545
[17] = Chondroitin Sulfate A 5-0.019 mg/ml, 3 μM probe, spectral analysis, Excitation 300-500, Emission 545
[18] = Chondroitin Sulfate A concentration vs RFU, linear regression

In the case of `O=C([O-])CC[C@H](NC(=O)Cc1cc(-c2cccs2)sc1-c1ccc(-c2sc(-c3cccs3)cc2CC(=O)N[C@@H](CCC(=O)[O-])C(=O)[O-])s1)C(=O)[O-].[Na+].[Na+].[Na+].[Na+]` [pHTA-Glu, penta Hydrogen Thiophene Acetic acid Glutamic acid], the “RFU change (Correlation analysis)” value ([1]; Cellulose 10-[…], 3 μM probe) is reported as “Decrease”, the “RFU change (Signal deviation with increasing [Carbohydrate])” value ([1]; Cellulose 10-[…], 3 μM probe, spectral analysis, Excitation 300-500, Emission 545) is reported as “Unclear” and the “RFU change (Correlation analysis)” value ([1]; Chitin 10-[…], 3 μM probe) is reported as “Increases”. For the same compound, the “RFU change (Signal deviation with increasing [Carbohydrate])” value [1, 7] was “Increases”, the λmax change [1, 7] was “Redshift” and the “carbohydrate can be detected and/or differentiated by the LCO” value ([1]; Chitin) was “can be detected and/or differentiated”. The “Gradient Parameters (gradient of regression line)” value (from here on “Gradient Parameters”) [1, 8] was −139.6 ± 344.8, the “Quality of Gradient” value [1, 8] was “Horizontal” and the “Gradient Parameters” value [1, 9] was 2824 ± 156.6. The Linear relationship [1, 9] was “Significant”, the “Quality of Gradient” value [1, 9] was “Positive” and the Sensitivity ([1]; to cellulose) was “No”. The Sensitivity ([1]; to chitin) was “Yes”, the Sensitivity ([1]; to β-1,3-glucan) was “Yes” and the “carbohydrate can be detected and/or differentiated by the LCO” value ([1]; β-1,3-Glucan) was “can be detected and/or differentiated”. The “RFU change (Correlation analysis)” value ([1]; β-1,3-glucan 10-[…], 3 μM probe) was “Decrease”, the “RFU change (Signal deviation with increasing [Carbohydrate])” value ([1]; β-1,3-glucan 10-[…], 3 μM probe, spectral analysis, Excitation 300-500, Emission 545) was “Decrease” and the “Gradient Parameters” value [1, 10] was −898.7 ± 117.0. The “Quality of Gradient” value [1, 10] was “Negative”, the “RFU change (Correlation analysis)” value ([2]; Sodium alginate 5-0.019 mg/ml, 3 μM probe, probe-specific excitation λ, emission 545 nm) was “Increases” and the “RFU change (Signal deviation with increasing [Carbohydrate])” value ([2]; Sodium alginate 5-0.019 mg/ml, 3 μM probe, spectral analysis, Excitation 300-500, Emission 545) was “Increases”. For the same compound, the “Gradient Parameters” value [2, 11] was 88.7 ± 62.0, the “Quality of Gradient” value [2, 11] was “Horizontal” and the Sensitivity ([2]; to sodium alginate) was “No”. For the same compound, the “RFU change (Correlation analysis)” value ([3]; Glucose 5-0.019 mg/ml, 3 μM probe, probe-specific excitation λ, emission 545 nm) was “Decreases”, the “RFU change (Signal deviation with increasing [Carbohydrate])” value ([3]; Glucose 5-0.019 mg/ml, 3 μM probe, spectral analysis, Excitation 300-500, Emission 545) was “Decreases” and the “carbohydrate can be detected and/or differentiated by the LCO” value ([3]; Glucose, conclusion from change in signal magnitude and/or shift in λmax) was “can be detected and/or differentiated”. The “Gradient Parameters” value [3, 12] was −116.0 ± 41.0, the Linear relationship [3, 12] was “Significant” and the “Quality of Gradient” value [3, 12] was “Negative”. The Sensitivity ([3]; to glucose) was “Yes”, the “RFU change (Correlation analysis)” value ([4]; Amylose 5-0.019 mg/ml, 3 μM probe) was “Increases” and the “RFU change (Signal deviation with increasing [Carbohydrate])” value ([4]; Amylose 5-0.019 mg/ml, 3 μM probe, spectral analysis, Excitation 300-500, Emission 545) was “Increases”. For the same compound, the “carbohydrate can be detected and/or differentiated by the LCO” value ([4]; Amylose) was “can be detected and/or differentiated”, the “RFU change (Correlation analysis)” value ([4]; Cellulobiose 5-0.019 mg/ml, 3 μM probe) was “Increases” and the “RFU change (Signal deviation with increasing [Carbohydrate])” value [4, 13] was “Increases”. For the same compound, the λmax change [4, 13] was “No change”, the “carbohydrate can be detected and/or differentiated by the LCO” value ([4]; Cellulobiose) was “can be detected and/or differentiated” and the “Gradient Parameters” value [4, 14] was 493.6 ± 346.9. The “Quality of Gradient” value [4, 14] was “Horizontal”, the “Gradient Parameters” value [4, 15] was 178.6 ± 35.1 and the Linear relationship [4, 15] was “Significant”. For the same compound, the “Quality of Gradient” value [4, 15] was “Positive”, the Sensitivity ([4]; to amylose) was “Yes” and the Sensitivity ([4]; to cellulobiose) was “Yes”. The “RFU change (Correlation analysis)” value ([5]; Glycogen 5-0.019 mg/ml, 3 μM probe) was “Decreases”, the “RFU change (Signal deviation with increasing [Carbohydrate])” value [5, 16] was “Decreases” and the λmax change [5, 16] was “Redshift”. The “carbohydrate can be detected and/or differentiated by the LCO” value ([5]; Glycogen) was “can be detected and/or differentiated”, the “RFU change (Correlation analysis)” value ([5]; Heparin 5-0.019 mg/ml, 3 μM probe) was “Unclear” and the “RFU change (Signal deviation with increasing [Carbohydrate])” value ([5]; Heparin 5-0.019 mg/ml, 3 μM probe, spectral analysis, Excitation 300-500, Emission 545) was “Unclear”. The “carbohydrate can be detected and/or differentiated by the LCO” value ([5]; Heparin) was “can be detected and/or differentiated”, the “Gradient Parameters” value ([5]; glycogen concentration vs RFU) was −349.2 ± 96.7 and the Linear relationship ([5]; glycogen concentration vs RFU) was “Significant”. For the same compound, the “Quality of Gradient” value ([5]; glycogen concentration vs RFU) was “Negative”, the “Gradient Parameters” value ([5]; heparin concentration vs RFU) was −12.4 ± 108 and the Linear relationship ([5]; heparin concentration vs RFU) was “Not Significant”. The “Quality of Gradient” value ([5]; heparin concentration vs RFU) was “Horizontal”, the Sensitivity ([5]; to glycogen) was “Yes” and the Sensitivity ([5]; to heparin) was “No”. For the same compound, the “RFU change (Correlation analysis)” value ([6]; Chondroitin Sulfate A 5-0.019 mg/ml, 3 μM probe, probe-specific excitation λ, emission 545 nm) was “Unclear”, the “RFU change (Signal deviation with increasing [Carbohydrate])” value [6, 17] was “Decreases” and the λmax change [6, 17] was “No change”. For the same compound, the “Gradient Parameters” value [6, 18] was 125.3 ± 156.5, the “Quality of Gradient” value [6, 18] was “Horizontal” and the Sensitivity ([6]; to Chondroitin Sulfate A) was “No”.
